In series [1] the target is T1, CXCR4 (Homo sapiens, UniProt P61073).
T1 construct: CCRF-CEM cells, a human T-cell ALL line that endogenously expresses CXCR4; endogenous in cells; host or cells: CCRF-CEM (human T-cell acute lymphoblastic leukemia line)
Put plainly: CXCR4 chemotaxis assay (Transwell, CCRF-CEM cells). In kind it is cell-based. The following applies: DMSO vehicle. The source says:
Chemotaxis assays are utilized to determine the effect of compound on the directed migration of cells in response to chemokine. In general, cells that express a receptor of interest are placed in the upper chamber of a Transwell chemotaxis plate (Corning) and allowed to migrate through a polycarbonate membrane to a lower chamber containing the appropriate receptor-specific ligand. To test for antagonist or potentiating activity, cells are mixed with the desired concentration of compound prior to addition to the upper chamber. Conversely, agonist activity is determined by adding compound in the bottom chamber only without endogenous chemokine. The effect of compound is quantified by several parameters, including the extent of maximum response, the shift of agonist dose-response curves, and the area under the curve.
To measure the CXCR4 test compound elicited CXCR4-dependent migration of cells, the appropriate concentration of control agonist CXCL12 or test compound is diluted in phenol red-free RMPI-1640/20 mM HEPES/0.5% BSA buffer and placed in the bottom chamber of a transwell apparatus. CCRF-CEM cells, a human T-cell ALL line that endogenously expresses CXCR4, are washed twice in buffer and resuspended at 133,000 cells/ml. A 75 μl sample of the cell suspension is mixed with the test compound of interest and placed in the upper chamber of a 5-micron transwell apparatus.
To measure the effect of test compound on CXCL12 elicited CXCR4-dependent migration of cells, the appropriate concentration of CXCL12 is diluted in phenol red-free RMPI-1640/20 mM HEPES/0.5% BSA buffer and placed in the bottom chamber of a transwell apparatus. CCRF-CEM cells, a human T-cell ALL line that endogenously expresses CXCR4, are washed twice in buffer and resuspended at 133,000 cells/ml. A 75 μl sample of this suspension is mixed with the test compound of interest and placed in the upper chamber of a 5-micron transwell apparatus.
To initiate cell migration, the assembled transwell plate is placed in a 37° C., […] incubator for a specified time interval, typically between 30 and 120 minutes. After incubation, the unit is disassembled and the lower chamber placed at −80° C. overnight to facilitate lysis of cells. To quantify migrated cells, plates are thawed at 37° C. in a humidified chamber, and then a sample volume is removed from each well and mixed with an equal volume of CyQuant (Invitrogen) working solution in opaque plates. The fluorescence intensity of each well represents the DNA content and is directly proportional to cell number. Each sample is typically run in duplicate or triplicate and each plate include two separate negative controls. The plate background control, which includes no cells in the upper chamber, is subtracted from all values. […]

For a further series, the system named is male BALB/c mice. As to the kind of experiment: Mobilization of polymorphonuclear leukocytes (PMNs) in mice. Format: in vivo. The following applies: for Lymphocytes (×10^3 μl) Mean ± SD / PMNs (×10^3 μl) Mean ± SD: blood 3 hours after injection. The procedure: The effect of Compound 26 on mobilization of PMNs following subcutaneous administration was evaluated in mice. […] Louis, Mo.) was administered subcutaneously to 10 mice. […] Neutrophil and lymphocyte counts were determined using a Hemavet Model 950FS cell counter (Drew Scientific, Dallas, Tex.).

In series [2] the target is T1, CXCR4. As to the kind of experiment: Calcium flux assay, agonist mode, Flexstation (CCRF-CEM cells). Format: cell-based. Particulars: CCRF-CEM, percent of maximum response compared with SDF-1α, read-out: % Intrinsic Activity.
Series [3] is described as follows: Pharmacokinetic analysis in mice (plasma, LC/MS). In kind it is in vivo. The following applies: for bioavailability / half-life / MRT inf / Tmax: male, mouse, in vivo, 2.5 umol/kg; for half-life / MRT inf / Tmax: sc. On the procedure:
To determine the pharmacokinetic profile of the CXCR4 modulators, compounds were administered as single subcutaneous injection to 6-8 week old male mice at doses of either […] (three or four mice/group). […] Dosing of 0.5 μmol/kg or 1 μmol/kg were used for intravenous dosing. […] Mice were sacrificed and blood samples collected at 15 minutes, 30 minutes, 1 hour, 2 hours, 4 hours, 8 hours, and 24 hours after dosing. The concentration of compound in plasma samples was analyzed by LC/MS according to the method below.
To this, 5 μL of the analyte compound in AcN:H2O:FA (70:30:1%) of 100 μM concentration was added to get 5 μM concentration.
Serial calibration standards in plasma or plasma samples were transferred to clean labeled tubes and mixed with 3 volumes of acetonitrile with internal standard, tolbutamide, in order to precipitate proteins. The mixtures were vortexed and centrifuged at 12000 RPM (15320 g) for 10 minutes. Supernatants were transferred to HPLC injection vials or 96-well plates and 5 μL were injected into the LC-MS/MS system.
Noncompartmental pharmacokinetic analyses were performed using WinNonlin Professional (version 5.2) software (Pharsight, Cary, N.C.). The data were analyzed using the extravascular input model. For each subject, pharmacokinetic parameters were calculated individually as follows and then averaged. The maximum drug concentration in plasma, Cmax, and Tmax, the time to achieve Cmax, were calculated directly from the concentration-time curves. The area under the plasma concentration-time curve from hour 0 to the last measurable concentration in plasma, AUClast, was estimated by the linear trapezoidal rule. The area under the plasma concentration-time curve from hour 0 to infinity estimated using the following formula: AUCinf—obs=AUClast+Ct/Lambda_z, where Ct is the last measurable concentration in plasma, and Lambda_z is the terminal elimination rate constant estimated using log-linear regression during the terminal elimination phase. The number of points used in Lambda_z calculation was determined by visual inspection of the data describing the terminal phase and evaluation of the correlation coefficient associated with the regression line. T1/2, the terminal elimination half-life=ln(2)/Lambda_z. Mean residence time MRT, was calculated as following: MRT=(AUMCinf/AUCinf). Subcutaneous absorption bioavailability was calculated as the AUCinf following subcutaneous dosing divided by the AUCinf following intravenous dosing. Results were expressed as percentages.

Where two headings read alike, the source gives them in different places. Where a SMILES comes first, the peptide text is derived from it. Where no end group is shown, it is not given here. [ ]: non-standard residue; d: D form. The star is where a group is joined. Palmitoyl = CCCCCCCCCCCCCCCC(=O)*

T1 sequence (P61073 whole entry): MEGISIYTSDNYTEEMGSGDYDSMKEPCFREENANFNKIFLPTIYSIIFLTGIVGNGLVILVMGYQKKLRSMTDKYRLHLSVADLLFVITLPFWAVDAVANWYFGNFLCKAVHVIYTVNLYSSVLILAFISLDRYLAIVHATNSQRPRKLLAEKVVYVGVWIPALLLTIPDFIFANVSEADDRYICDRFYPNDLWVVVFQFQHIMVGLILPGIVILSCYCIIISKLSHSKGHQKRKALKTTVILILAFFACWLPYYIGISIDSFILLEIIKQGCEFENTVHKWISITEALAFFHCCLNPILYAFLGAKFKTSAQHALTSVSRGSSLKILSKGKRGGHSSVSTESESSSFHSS

As for “43: i3 loop peptide SKLSHSKGHQKRKALKTTVIL (SEQ ID NO: 39), lipid Pal (also: lipid Pal attached, position not given here) [Compound 43]”, in the series with CXCR4 [1], the “AUC (% of Vehicle)” value was 226.59 % of Vehicle and the “Max (% of Vehicle)” value is recorded as 202.16 % of Vehicle.
For the molecule “44: i4 loop peptide GAKFKTSAQHALTSVR (SEQ ID NO: 40), lipid Pal (also: lipid Pal attached, position not given here) [Compound 44]”, in the series with CXCR4 [1], the “AUC (% of Vehicle)” value is 56.75 % of Vehicle and the “Max (% of Vehicle)” value was 56.7 % of Vehicle.
As to `c1cc(CN2CCCNCCNCCCNCC2)ccc1CN1CCCNCCNCCCNCC1` [AMD3100, reference compound], in the series with male BALB/c mice (6.66 μmol/kg subcutaneous), the “Lymphocytes (×10^3 μl) Mean ± SD” value is listed as 8.76 ± 1.67 ×10^3 μl and the “PMNs (×10^3 μl) Mean ± SD” value was 7.83 ± 3.20 ×10^3 μl.
As usually defined, the bioavailability is dose-corrected exposure relative to a reference, in per cent. Usually half-life stands for the time in which the quantity being followed falls by half. What is called Tmax is the time at which the peak concentration occurs. Take `CCCCCCCCCCCCCCCC(=O)NCC(=O)NCC(=O)N[C@@H](Cc1ccc(O)cc1)C(=O)N[C@@H](CCC(N)=O)C(=O)N[C@@H](CCCCN)C(=O)N[C@@H](CCCCN)C(=O)N[C@@H](CC(C)C)C(=O)N[C@@H](CCCNC(=N)N)C(=O)N1CCC[C@@H]1C(=O)N[C@@H](Cc1c[nH]cn1)C(=O)N[C@H](C(=O)N[C@@H](CC(=O)O)C(=O)N[C@@H](CCCCN)C(=O)N[C@@H](Cc1ccc(O)cc1)C(=O)N[C@@H](CCCNC(=N)N)C(=O)N[C@@H](CC(C)C)C(N)=O)[C@@H](C)O` [Compound 26] (Palmitoyl-GGYQKKLR[dP]HTDKYRL-NH2; C-terminus assumed): the Emax at CXCR4 [2] amounted to 91.2%. For the same molecule, the “Lymphocytes (×10^3 μl) Mean ± SD” value in the series with male BALB/c mice (0.2 μmol/kg subcutaneous) is given as 4.39 ± 1.33 ×10^3 μl; in the series with male BALB/c mice (0.66 μmol/kg subcutaneous), 5.14 ± 2.22 ×10^3 μl; with male BALB/c mice (2 μmol/kg subcutaneous), 4.15 ± 1.97 ×10^3 μl; in the series on male BALB/c mice (6.66 μmol/kg subcutaneous), 3.74 ± 2.12 ×10^3 μl. Besides, the “PMNs (×10^3 μl) Mean ± SD” value is given as 3.60 ± 1.89 ×10^3 μl in the series on male BALB/c mice (0.2 μmol/kg subcutaneous), 5.03 ± 1.97 ×10^3 μl in the series on male BALB/c mice (0.66 μmol/kg subcutaneous), 5.92 ± 1.73 ×10^3 μl in the series on male BALB/c mice (2 μmol/kg subcutaneous) and 7.11 ± 2.82 ×10^3 μl in the series on male BALB/c mice (6.66 μmol/kg subcutaneous). Moreover, in the series on male BALB/c mice (systemic, subcutaneous injection), the “release of bone marrow PMNs (in words)” value is reported as “acted as a functional antagonist to elicit release of bone marrow PMNs in a dose responsive fashion”. The bioavailability in series [3] (mice, subcutaneous 2.5 μmol/kg, AUCinf subcutaneous divided by AUCinf intravenous, read-out: Bioavailability (%)) worked out at 88%. The half-life in series [3] (mice, single subcutaneous injection, 2.5 μmol/kg, read-out: Half-life elimination (converted)) was 2.4 h. Moreover, in series [3] (mice, single subcutaneous injection, 2.5 μmol/kg, read-out: MRT INFobs), the MRT inf came to 4.5 h. In series [3] (mice, single subcutaneous injection, 2.5 μmol/kg, read-out: Tmax), the Tmax was found to be 2 h. The “bioavailability following subcutaneous administration (comparison in words)” value in series [3] (mice, subcutaneous) is given as “greater than that of compound 48”.
As to `CCCCCCCCCCCCCCCC(=O)NCC(=O)NCC(=O)N[C@@H](Cc1ccc(O)cc1)C(=O)N[C@@H](CCC(N)=O)C(=O)N[C@@H](CCCCN)C(=O)N[C@@H](CCCCN)C(=O)N[C@H](CC(C)C)C(=O)N[C@@H](CCCNC(=N)N)C(=O)N[C@@H](CO)C(=O)N[C@@H](C)C(=O)N[C@H](C(=O)N[C@@H](CC(=O)O)C(=O)N[C@@H](CCCCN)C(=O)N[C@@H](Cc1ccc(O)cc1)C(=O)N[C@@H](CCCNC(=N)N)C(=O)N[C@@H](CC(C)C)C(N)=O)[C@@H](C)O` [Compound 39] (Palmitoyl-GGYQKK[dL]RSATDKYRL-NH2; C-terminus assumed), the Emax on CXCR4 [2] came out at 104%.
On the same count and under the same terms, to `CCCCCCCCCCCCCCCC(=O)NCC(=O)NCC(=O)N[C@@H](Cc1ccc(O)cc1)C(=O)N[C@@H](CCC(N)=O)C(=O)N[C@@H](CCCCN)C(=O)N[C@@H](CCCCN)C(=O)N[C@@H](CC(C)C)C(=O)N[C@@H](CCCNC(=N)N)C(=O)N[C@@H](CO)C(=O)N[C@@H](C)C(=O)N[C@H](C(=O)N[C@@H](CC(=O)O)C(=O)N[C@@H](CCCCN)C(=O)N[C@@H](Cc1ccc(O)cc1)C(=O)N[C@@H](CCCNC(=N)N)C(=O)N[C@@H](CC(C)C)C(=O)N[C@@H](Cc1c[nH]cn1)C(N)=O)[C@@H](C)O` [Compound 40] (Palmitoyl-GGYQKKLRSATDKYRLH-NH2; C-terminus assumed) belongs 78.7%; to `CCCCCCCCCCCCCCCC(=O)NCC(=O)NCC(=O)N[C@@H](Cc1ccc(O)cc1)C(=O)N[C@@H](CCC(N)=O)C(=O)N[C@@H](CCCCN)C(=O)N[C@@H](CCCCN)C(=O)N[C@@H](CC(C)C)C(=O)N[C@@H](CCCNC(=N)N)C(=O)N[C@H](C(=O)N[C@@H](C)C(=O)N[C@H](C(=O)N[C@@H](CC(=O)O)C(=O)N[C@@H](CCCCN)C(=O)N[C@@H](Cc1ccc(O)cc1)C(=O)N[C@@H](CCCNC(=N)N)C(=O)N[C@@H](CC(C)C)C(N)=O)[C@@H](C)O)[C@@H](C)O` [Compound 41] (Palmitoyl-GGYQKKLRTATDKYRL-NH2; C-terminus assumed), 149%.
Regarding `CCCCCCCCCCCCCCCC(=O)N[C@@H](CCSC)C(=O)NCC(=O)N[C@@H](Cc1ccc(O)cc1)C(=O)N[C@@H](CCC(N)=O)C(=O)N[C@@H](CCCCN)C(=O)N[C@@H](CCCCN)C(=O)N[C@@H](CC(C)C)C(=O)N[C@@H](CCCNC(=N)N)C(=O)N[C@@H](CO)C(=O)N[C@@H](CCSC)C(=O)N[C@H](C(=O)N[C@@H](CC(=O)O)C(=O)N[C@@H](CCCCN)C(=O)N[C@@H](Cc1ccc(O)cc1)C(=O)N[C@@H](CCCNC(=N)N)C(=O)N[C@@H](CC(C)C)C(N)=O)[C@@H](C)O` [Compound 48] (Palmitoyl-MGYQKKLRSMTDKYRL-NH2), in series [3], the bioavailability was less than 30%, the MRT inf came out at 2.6 h, the Tmax turned out to be 2 h and the half-life was 1.5 h.

(Values after patent US9155795B2, “CXCR4 receptor compounds” (Anchor Therapeutics, Inc., priority 2010, dated 2015).)
